Several values for one entry are separate records, joined by “and”; a condition that tells them apart may be missing. Identical values can stand only once.
How the values were obtained:
[1] = test system: Bcl-2 in breast cancer cell line (MCF-7); experiment: Bcl-2 level assay in MCF-7 cells; assay type: cell-based, human; conditions: for Bcl-2 Fold Change: reduced level vs control
[2] = test system: Bax in breast cancer cell line (MCF-7); experiment: Bax level assay in MCF-7 cells; assay type: cell-based, human; conditions: for Bax Fold Change: increase over control untreated cells
[3] = test system: A549 lung, MCF-7 breast, Panc-1 Pancreatic, and HT-29 colon cancer cell lines; parameters: method as in PMID 31128433; conditions: A549, MCF-7, Panc-1, HT-29; read-out: GI50 against the four examined cell lines (mean GI50); cited from earlier work
[4] = test system: four human cancer cell lines (Panc-1, MCF-7, HT-29, A-549); experiment: Antiproliferative MTT assay, average of four cancer cell lines (mean GI50); assay type: cell-based; conditions: Homo sapiens; average of A-549, MCF-7, Panc-1, HT-29; read-out: Antiproliferative Activity IC50 Average (GI50 against the four cell lines)
[5] = test system: Caspase-8 in MCF-7 breast cancer cell line; experiment: Caspase-8 level in MCF-7 cells; assay type: cell-based, human; conditions: for Caspase-8 Fold Change: vs control cells
[6] = test system: Caspase-3 in MCF-7 breast cancer cell line; experiment: Caspase-3 level in MCF-7 cells; conditions: for Caspase-3 Fold Change: vs control untreated cells
[7] = test system: Caspase-9 in MCF-7 breast cancer cell line; experiment: Caspase-9 level in MCF-7 cells; assay type: cell-based, human; conditions: for Caspase-9 Fold Change: vs control cells
[8] = test system: pancreas cancer cell line (Panc-1); experiment: Antiproliferative MTT assay, Panc-1; assay type: cell-based; conditions: Homo sapiens; Panc-1, MTT; read-out: Antiproliferative Activity IC50 ± SEM Panc-1
From the text: (§1) Using the MTT assay with doxorubicin as the reference drug, the antiproliferative activities of 5a–k, 6a–c, and 7 against four human cancer cell lines, including pancreas cancer cell line (Panc-1), breast cancer cell line (MCF-7), colon cancer cell line (HT-29), and epithelial cancer cell line (A-549) were investigated.

[9] = test system: Cytochrome C in MCF-7 human breast cancer cell line; experiment: Cytochrome C assay in MCF-7 cells; assay type: cell-based; conditions: for Cytochrome C Fold Change: vs untreated control cells
Protocol: The quantity of cytochrome C within the cell is important for activating caspases and commencing the intrinsic apoptosis process. […] The findings add to the evidence that apoptosis can be attributed to Cytochrome C overexpression and activation of the intrinsic apoptotic pathway triggered by the investigated compounds.
Indole-2-carboxamide derivatives 5d, 5e, and 5h were evaluated as Cytochrome C activators in the MCF-7 human breast cancer cell line.

[10] = test system: epithelial cancer cell line (A-549); experiment: Antiproliferative MTT assay, A-549; assay type: cell-based; conditions: Homo sapiens, A549; A-549, MTT; read-out: Antiproliferative Activity IC50 ± SEM A-549
From the text: as §1

[11] = test system: colon cancer cell line (HT-29); experiment: Antiproliferative MTT assay, HT-29; assay type: cell-based; conditions: Homo sapiens; HT-29, MTT; read-out: Antiproliferative Activity IC50 ± SEM HT-29
From the text: as §1

[12] = test system: breast cancer cell line (MCF-7); experiment: Antiproliferative MTT assay, MCF-7; assay type: cell-based; conditions: Homo sapiens, MCF7; MCF-7, MTT; read-out: Antiproliferative Activity IC50 ± SEM MCF-7
From the text: as §1

p53 in MCF-7 = experiment: p53 transcription/level in MCF-7; assay type: cell-based, human; conditions: MCF-7 cells
From the text: p53 is a unique protein that participates in several physiological processes such as cell metabolism, stem cell maintenance, and cell adhesion. Because p53 is frequently inactivated in cancer cells, the cells are unable to undergo apoptosis. Similarly, activating, or stabilizing p53 aids cancer cells in normalizing p53-controlled physiological processes and increasing apoptotic activity.

EGFR = EGFR (Homo sapiens, UniProt P00533); experiment: EGFR-TK inhibitory assay; assay type: biochemical; conditions: read-out: EGFR Inhibition IC50 ± SEM
CDK2 enzyme = CDK2 enzyme (Homo sapiens, UniProt P24941); experiment: CDK2 inhibitory assay
[13] = Cell viability assay (MTT) on MCF-10A cells; assay type: cell-based; conditions: human, MCF-10A mammary gland epithelial cells
Protocol: (§2) The MCF-10A (human mammary gland epithelial) cell line was used in the cell viability experiment. Compounds 5a–k, 6a–c, and 7 were incubated with MCF-10A cells for 4 days at 50 µM concentration, and the viability of cells was determined using the 3-(4,5-dimethylthiazol-2-yl)-2,5-diphenyltetrazolium bromide (MTT) test.. All compounds had no cytotoxic effects, and the vitality of the cells was more than 83% for most of the compounds examined.
as §2, with “test.” for “test.. All compounds had no cytotoxic effects, and the vitality of the cells was more than 83% for most of the compounds examined.”

Chain of EGFR (P00533 25-1210): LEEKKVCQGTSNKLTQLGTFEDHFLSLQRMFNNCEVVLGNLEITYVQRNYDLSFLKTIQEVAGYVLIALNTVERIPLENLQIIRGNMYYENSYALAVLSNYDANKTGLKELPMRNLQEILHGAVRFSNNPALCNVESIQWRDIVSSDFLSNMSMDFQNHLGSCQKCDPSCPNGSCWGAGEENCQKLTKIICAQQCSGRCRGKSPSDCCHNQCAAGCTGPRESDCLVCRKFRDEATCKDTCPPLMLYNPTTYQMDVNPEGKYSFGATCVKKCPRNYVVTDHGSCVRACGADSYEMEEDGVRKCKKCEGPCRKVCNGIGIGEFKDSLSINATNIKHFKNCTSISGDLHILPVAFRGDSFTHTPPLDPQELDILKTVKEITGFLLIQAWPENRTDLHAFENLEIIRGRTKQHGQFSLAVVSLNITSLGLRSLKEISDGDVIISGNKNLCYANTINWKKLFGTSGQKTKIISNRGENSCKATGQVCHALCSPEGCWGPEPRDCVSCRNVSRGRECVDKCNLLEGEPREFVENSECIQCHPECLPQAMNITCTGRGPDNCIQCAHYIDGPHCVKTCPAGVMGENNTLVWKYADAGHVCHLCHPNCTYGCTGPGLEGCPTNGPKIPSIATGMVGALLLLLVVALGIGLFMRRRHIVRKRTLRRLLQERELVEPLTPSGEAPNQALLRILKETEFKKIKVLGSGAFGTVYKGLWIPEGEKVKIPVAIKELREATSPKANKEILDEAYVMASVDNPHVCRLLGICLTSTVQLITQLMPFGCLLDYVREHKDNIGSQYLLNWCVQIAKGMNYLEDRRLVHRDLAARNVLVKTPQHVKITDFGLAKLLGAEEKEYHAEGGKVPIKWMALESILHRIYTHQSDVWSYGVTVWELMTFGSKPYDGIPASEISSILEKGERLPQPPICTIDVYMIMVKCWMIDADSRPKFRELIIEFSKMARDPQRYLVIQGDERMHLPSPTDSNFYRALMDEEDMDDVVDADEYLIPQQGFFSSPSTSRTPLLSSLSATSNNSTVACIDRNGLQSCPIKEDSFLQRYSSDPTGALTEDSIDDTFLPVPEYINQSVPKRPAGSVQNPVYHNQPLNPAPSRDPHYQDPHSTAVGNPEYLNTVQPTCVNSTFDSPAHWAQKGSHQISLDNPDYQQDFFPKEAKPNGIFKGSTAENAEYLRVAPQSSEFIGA

Structure (SMILES) | Bcl-2 Conc [1] | Bcl-2 Fold Change [1] | Bax Conc [2] | Bax Fold Change [2] | IC50 [4] | Caspase-8 Conc [5] | Caspase-8 Fold Change [5] | Caspase-3 Conc [6] | Caspase-3 Fold Change [6] | Caspase-9 Conc [7] | Caspase-9 Fold Change [7] | IC50 [8] | Cytochrome C Conc [9] | Cytochrome C Fold Change [9] | IC50 [10] | IC50 [11] | IC50 [12] | p53 Conc (p53 in MCF-7) | further results
COc1cccc2c1C(=O)c1c(O)c3c(c(O)c1C2=O)C[C@@](O)(C(=O)CO)C[C@@H]3O[C@H]1C[C@H](N)[C@H](O)[C@H](C)O1 [Doxorubicin, reference compound] | 0.98 ng/mL | 5.20 fold | 275.80 ± 2.50 pg/mL | 33 fold | 1.1 µM | 1.80 ng/mL | 9.00 fold | 503.50 ± 4.50 pg/mL | 7.70 fold | 16.25 ng/mL | 17.00 fold | 1.4 ± 0.2 µM | 0.60 ng/mL | 12 fold | 1.2 ± 0.2 µM | 1 ± 0.1 µM | 0.9 ± 0.1 µM | 1265 ± 10 pg/mL | GI50 [3]: 1.13 µM; p53 Fold Change (p53 in MCF-7; vs control): 25 fold; p53 Conc (p53 in MCF-7; listed as doxorubicin): 1265 pg/mL
Cc1c(C(=O)NCCc2ccc(N3CCCC3C)cc2)[nH]c2ccc(Cl)cc12 (stereo not shown) [Compound 5e, 5-Chloro-3-methyl-N-(4-(2-methylpyrrolidin-1-yl)phenethyl)-1H-indole-2-carboxamide] | 0.87 ng/mL | 5.90 fold | 296.50 pg/mL and 296.50 ± 2.50 pg/mL | 36 fold | 0.95 µM | 2.17 ng/mL | 10.90 fold | 635.50 ± 5.50 pg/mL | 9.70 fold | 17.25 ng/mL | 18.15 fold | 1 ± 0.2 µM | 0.80 ng/mL | 16 fold | 0.95 ± 0.05 µM | 1.1 ± 0.1 µM | 0.8 ± 0.05 µM | 1435 pg/mL and 1435 ± 15 pg/mL | IC50 (EGFR): 0.093 ± 0.008 µM; IC50 (CDK2 enzyme): 0.013 ± 0.001 µM; fold more active than dinaciclib on CDK2 (CDK2 enzyme; vs reference dinaciclib): 1.5 fold; viability at 4 days, 50 µM [13]: 93%

— publication PMC9414584, “Synthesis and Biological Evaluation of Indole-2-Carboxamides with Potent Apoptotic Antiproliferative Activity as EGFR/CDK2 Dual Inhibitors” (Pharmaceuticals, 2022)
